Laboratory results taken from patent US8741911B2, “Raf inhibitor compounds” (Eli Lilly and Company, priority 2012, dated 2014).
pIC50: −log10 of the molar value. Read-outs that look alike come from different tables or passages of the source.

What was measured:
[1] = tested on: NCI-H1793; experiment: CellTiter-Glo proliferation and viability assay; type: cell-based; details: Homo sapiens
[2] = tested on: KATOIII; experiment: CellTiter-Glo proliferation and viability assay; type: cell-based; details: Homo sapiens, KATO III
[3] = tested on: C3A; experiment: CellTiter-Glo proliferation and viability assay; type: cell-based; details: Homo sapiens
[4] = tested on: SW900; experiment: CellTiter-Glo proliferation and viability assay; type: cell-based; details: Homo sapiens
[5] = tested on: NCI-H1436; experiment: CellTiter-Glo proliferation and viability assay; type: cell-based; details: Homo sapiens
[6] = tested on: LOUCY; experiment: CellTiter-Glo proliferation and viability assay; type: cell-based; details: Homo sapiens, read-out: Abs IC50
[7] = tested on: NCI-H1694; experiment: CellTiter-Glo proliferation and viability assay; type: cell-based; details: Homo sapiens
[8] = tested on: IM-9; experiment: CellTiter-Glo proliferation and viability assay; type: cell-based; details: Homo sapiens, read-out: Abs IC50
[9] = tested on: phospho-MEK and phospho-ERK in A375 cells; experiment: Immunoblotting (Western Blot) analysis of phospho-MEK and phospho-ERK; type: cell-based, human
Method: Testing is carried out at doses of 0, and 11 serial dilutions ranging from 0.17 to 10000 nM. Protein lysates are generated by treatment of the cells with RIPA lysis buffer from Millipore. Western blotting analysis is performed substantially as described in Yadav et al, Molecular Carcinogenesis, 2011, 50: 346-52. Briefly, SDS-PAGE is performed on cell lysates containing 20 ug of total protein using 4-20% Novex® tri-glycine gradient gels (Invitrogen). Protein is transferred onto […] nitrocellulose membranes using NuPAGE® Transfer Buffer (Invitrogen) and 10% methanol at 100 V, 4° C. for 1 hr. Generally, the primary antibody is used at 1:1000 dilution, and secondary antibody at 1:20000 dilution. Proteins are detected using the Odyssey Infrared Imaging System (Li-COR Biosciences). Antibodies against ERK1/2, phospho-ERK1/2, phospho-MEK1/2, and actin are obtained from Cell Signaling Technology.
Phospho-ERK activity was substantially eliminated at 41 nM.

[10] = molecular target: T1, A-Raf (WT) (Homo sapiens, UniProt P10398); experiment: ActivX KiNativ A375 whole cell lysate assay; type: binding
T1 construct: Measurement of Raf Kinase Activities with Native Whole Enzymes Using KiNativ Assay; host or cells: A375 human melanoma cells, whole cell lysate
T1 sequence (P10398 1-606): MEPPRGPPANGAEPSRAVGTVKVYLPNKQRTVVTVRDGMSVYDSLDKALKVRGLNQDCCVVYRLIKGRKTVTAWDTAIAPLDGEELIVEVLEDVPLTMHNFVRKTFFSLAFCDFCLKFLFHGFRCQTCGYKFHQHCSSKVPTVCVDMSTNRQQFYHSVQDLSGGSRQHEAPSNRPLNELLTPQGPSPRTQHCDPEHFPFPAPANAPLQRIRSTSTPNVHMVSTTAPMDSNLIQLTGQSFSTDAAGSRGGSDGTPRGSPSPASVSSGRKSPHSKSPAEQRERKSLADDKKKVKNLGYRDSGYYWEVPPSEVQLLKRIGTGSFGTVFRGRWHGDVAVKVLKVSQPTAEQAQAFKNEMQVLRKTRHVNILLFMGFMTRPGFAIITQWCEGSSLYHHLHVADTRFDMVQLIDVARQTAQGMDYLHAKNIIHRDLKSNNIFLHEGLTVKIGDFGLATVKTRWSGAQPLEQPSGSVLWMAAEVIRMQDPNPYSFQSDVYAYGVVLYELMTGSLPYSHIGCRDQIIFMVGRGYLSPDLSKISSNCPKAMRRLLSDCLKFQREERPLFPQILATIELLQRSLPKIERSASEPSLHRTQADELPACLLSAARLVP

[11] = tested on: MIA-PaCa-2; experiment: CellTiter-Glo proliferation and viability assay; type: cell-based; details: Homo sapiens, read-out: Abs IC50
[12] = tested on: DMS-53; experiment: CellTiter-Glo proliferation and viability assay; type: cell-based; details: Homo sapiens, read-out: Abs IC50
[13] = tested on: huH-1; experiment: CellTiter-Glo proliferation and viability assay; type: cell-based; details: Homo sapiens
[14] = tested on: NCI-H23; experiment: CellTiter-Glo proliferation and viability assay; type: cell-based; details: Homo sapiens
[15] = tested on: P30-OHK; experiment: CellTiter-Glo proliferation and viability assay; type: cell-based; details: Homo sapiens, read-out: Abs IC50
[16] = tested on: Hep3B2.1-7; experiment: CellTiter-Glo proliferation and viability assay; type: cell-based; details: Homo sapiens
[17] = tested on: NCI-H1993; experiment: CellTiter-Glo proliferation and viability assay; type: cell-based; details: Homo sapiens
[18] = tested on: SiHa; experiment: CellTiter-Glo proliferation and viability assay; type: cell-based; details: Homo sapiens
[19] = tested on: M059K; experiment: CellTiter-Glo proliferation and viability assay; type: cell-based; details: Homo sapiens
[20] = tested on: WM-266-4; experiment: CellTiter-Glo proliferation and viability assay; type: cell-based; details: Homo sapiens, WM-266-4, B-Raf V600E, melanoma
Text: (§1) B-Raf mutations, particularly B-Raf V600E in human cancer are often observed in human malignancies including melanoma, colorectal, lung, and ovarian cancers. This mutation in B-Raf may lead to constitutive kinase activity and malignant transformation.

[21] = tested on: Colo-205; experiment: CellTiter-Glo proliferation and viability assay; type: cell-based; details: Homo sapiens, Colo-205, B-Raf V600E, colon
Text: as §1

[22] = tested on: LN 18; experiment: CellTiter-Glo proliferation and viability assay; type: cell-based; details: Homo sapiens
[23] = tested on: NCI-H2009; experiment: CellTiter-Glo proliferation and viability assay; type: cell-based; details: Homo sapiens
[24] = tested on: C8166; experiment: CellTiter-Glo proliferation and viability assay; type: cell-based; details: Homo sapiens
[25] = tested on: HT-1080; experiment: CellTiter-Glo proliferation and viability assay; type: cell-based; details: Homo sapiens
[26] = tested on: GA-10-Clone-4; experiment: CellTiter-Glo proliferation and viability assay; type: cell-based; details: Homo sapiens
[27] = tested on: MOLT-4; experiment: CellTiter-Glo proliferation and viability assay; type: cell-based; details: Homo sapiens

For `CNc1ncc2cc(-c3cc(NC(=O)NCCC(C)(C)C)c(F)cc3C)c(C)nc2n1` [Example 1, 1-(3,3-Dimethylbutyl)-3-(2-fluoro-4-methyl-5-(7-methyl-2-(methylamino)pyrido[2,3-d]pyrimidin-6-yl)phenyl)urea], the pIC50 ([1]; read-out: Abs IC50) was under 7.70, the pIC50 ([1]; read-out: Rel IC50) was 9.44 and the pIC50 ([2]; read-out: Abs IC50) was 9.48. For the same compound, the pIC50 ([2]; read-out: Rel IC50) was 9.48, the pIC50 ([3]; read-out: Abs IC50) was under 7.70 and the pIC50 ([3]; read-out: Rel IC50) was 9.22. It also gave a pIC50 ([4]; read-out: Abs IC50) of 9.16, a pIC50 ([4]; read-out: Rel IC50) of 9.64 and a pIC50 ([5]; read-out: Abs IC50) of 8.08. For the same compound, the pIC50 ([5]; read-out: Rel IC50) was 7.89, the pIC50 [6] was 8.16 and the pIC50 ([7]; read-out: Abs IC50) was 7.82. The pIC50 ([7]; read-out: Rel IC50) was 7.79, the pIC50 [8] was 9.42 and the “concentration at which phospho-ERK activity was substantially eliminated” value [9] was 41 nM. For the same compound, the “phospho-MEK and phospho-ERK activities” value [9] was “inhibited phospho-MEK and phospho-ERK activities”, the inhibition at 0.001 µM ([10]; 1 nM) was 4.3% and the inhibition at 0.01 µM ([10]; 10 nM) was 13.4%. For the same compound, the inhibition at 0.1 µM ([10]; 100 nM) was 53.6%, the inhibition at 1 µM ([10]; 1000 nM) was 72% and the pIC50 [11] was 8.96. For the same compound, the pIC50 [12] was 9.22, the pIC50 ([13]; read-out: Abs IC50) was 8.70 and the pIC50 ([13]; read-out: Rel IC50) was 9.23. It also gave a pIC50 ([14]; read-out: Abs IC50) of 8.20, a pIC50 ([14]; read-out: Rel IC50) of 9.16 and a pIC50 [15] of 8.84. It also gave a pIC50 ([16]; read-out: Abs IC50) of 9.10, a pIC50 ([16]; read-out: Rel IC50) of 9.44 and a pIC50 ([17]; read-out: Abs IC50) of 9.77. The pIC50 ([17]; read-out: Rel IC50) was 10.05, the pIC50 ([18]; read-out: Abs IC50) was under 7.70 and the pIC50 ([18]; read-out: Rel IC50) was under 7.70. For the same compound, the pIC50 ([19]; read-out: Abs IC50) was 7.82, the pIC50 ([19]; read-out: Rel IC50) was 9.00 and the pIC50 [20] was 7.28. It also gave a pIC50 [21] of 7.57, a pIC50 ([22]; read-out: Abs IC50) of under 7.70 and a pIC50 ([22]; read-out: Rel IC50) of under 7.70. For the same compound, the pIC50 ([23]; read-out: Abs IC50) was 7.92, the pIC50 ([23]; read-out: Rel IC50) was 8.80 and the pIC50 ([24]; read-out: Abs IC50) was 8.96. For the same compound, the pIC50 ([24]; read-out: Rel IC50) was 9.25, the pIC50 ([25]; read-out: Abs IC50) was 9.01 and the pIC50 ([25]; read-out: Rel IC50) was 9.30. It also gave a pIC50 ([26]; read-out: Abs IC50) of 9.70, a pIC50 ([26]; read-out: Rel IC50) of 9.60 and a pIC50 ([27]; read-out: Abs IC50) of under 7.70. The pIC50 ([27]; read-out: Rel IC50) was 8.92.
